Measured values published in PubChem BioAssay AID330 (DTP/NCI, 2004).
Where “and” joins values, the source holds several entries; their conditions need not be identical. Equal entries are not always repeated. Inconclusive results and toxic doses are left out.

Tested on: P388 leukemia ip, CD2F1 mice, survival T/C
Assay: NCI In Vivo Anticancer Drug Screen. Data for tumor model P388 Leukemia (intraperitoneal) in CD2F1 (CDF1) mice
Conditions: endpoint: median survival time, higher = longer survival
Summary of the method: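 Mice carrying the transplanted tumor received test compound or vehicle. Survival was recorded in each group, and the value is the treated-group measurement divided by that of the vehicle-treated control group.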

[1] = dose: 12.5 mg/kg/injection, schedule: Q01DX009 (ip), vehicle: water
[2] = dose: 50.0 mg/kg/injection, schedule: Q01DX009 (ip), vehicle: water
[3] = dose: 50.0 mg/kg/injection, schedule: Q01DX009 (ip), vehicle: saline with Tween-80
[4] = dose: 100.0 mg/kg/injection, schedule: Q01DX009 (ip), vehicle: saline with Tween-80
[5] = dose: 200.0 mg/kg/injection, schedule: Q01DX009 (ip), vehicle: saline with Tween-80
[6] = dose: 6.25 mg/kg/injection, schedule: Q01DX009 (ip), vehicle: Klucel (hydroxypropylcellulose) (HPC)
[7] = dose: 12.5 mg/kg/injection, schedule: Q01DX009 (ip), vehicle: Klucel (hydroxypropylcellulose) (HPC)
[8] = dose: 25.0 mg/kg/injection, schedule: Q01DX009 (ip), vehicle: Klucel (hydroxypropylcellulose) (HPC)
[9] = dose: 100.0 mg/kg/injection, schedule: Q01DX009 (ip), vehicle: Klucel (hydroxypropylcellulose) (HPC)
[10] = dose: 60.0 mg/kg/injection, schedule: Q01DX005 (ip), vehicle: Klucel (hydroxypropylcellulose) (HPC)
[11] = dose: 120.0 mg/kg/injection, schedule: Q01DX005 (ip), vehicle: Klucel (hydroxypropylcellulose) (HPC)
[12] = dose: 240.0 mg/kg/injection, schedule: Q01DX005 (ip), vehicle: Klucel (hydroxypropylcellulose) (HPC)
[13] = dose: 50.0 mg/kg/injection, schedule: Q01DX005 (ip), vehicle: saline with Tween-80
[14] = dose: 100.0 mg/kg/injection, schedule: Q01DX005 (ip), vehicle: saline with Tween-80
[15] = dose: 200.0 mg/kg/injection, schedule: Q01DX005 (ip), vehicle: saline with Tween-80

Q: `O=NNc1nc2ccc([N+](=O)[O-])cc2s1` was tested. Which T/C (dose: 3.12 mg/kg/injection, schedule: Q01DX009 (ip), vehicle: water) did it give?
A: 95 % of control

Q: What about the T/C (dose: 6.25 mg/kg/injection, schedule: Q01DX009 (ip), vehicle: water) of the same compound?
A: 95 % of control

Q: And the T/C [1]?
A: 103 % of control and 97 % of control

Q: What about the T/C (dose: 25.0 mg/kg/injection, schedule: Q01DX009 (ip), vehicle: water) of the same compound?
A: 106 % of control and 109 % of control and 112 % of control

Q: And the T/C [2]?
A: 112 % of control and 118 % of control

Q: `CCCCNC(=O)NS(=O)(=O)c1ccc(N)cc1` was tested. Which T/C [3] did it give?
A: 100 % of control

Q: And the T/C [4]?
A: 105 % of control

Q: What about the T/C [5] of the same compound?
A: 102 % of control

Q: Which T/C (dose: 1.0 mg/kg/injection, schedule: Q01DX009 (ip), vehicle: Klucel (hydroxypropylcellulose) (HPC)) does the source give for `C=C1C2CCC3C(CCC4C5(C)CCCC43CN3CCOC35)(C2)C1O` (configuration not stated) here?
A: 95 % of control

Q: And the T/C (dose: 2.0 mg/kg/injection, schedule: Q01DX009 (ip), vehicle: Klucel (hydroxypropylcellulose) (HPC))?
A: 97 % of control

Q: What about the T/C (dose: 4.0 mg/kg/injection, schedule: Q01DX009 (ip), vehicle: Klucel (hydroxypropylcellulose) (HPC)) of the same compound?
A: 98 % of control

Q: And the T/C (dose: 8.0 mg/kg/injection, schedule: Q01DX009 (ip), vehicle: Klucel (hydroxypropylcellulose) (HPC))?
A: 97 % of control

Q: With `CCCCOC1OCN(Cc2ccccc2)CC1(C)C` (configuration not stated) as the compound, how does the T/C [3] read?
A: 111 % of control

Q: And the T/C [4]?
A: 123 % of control

Q: And the T/C [5]?
A: 122 % of control

Q: For `CN(C)CCCNCCCCNCCCN(C)C`, which T/C [3] is on record?
A: 105 % of control

Q: What about the T/C [4] of the same compound?
A: 110 % of control

Q: And the T/C [5]?
A: 110 % of control

Q: Which results are given for `CC(=O)OC(C)(C)/C=C/C(=O)[C@](C)(O)[C@H]1[C@H](O)C[C@@]2(C)[C@@H]3CC=C4[C@@H](C[C@H](O)C(=O)C4(C)C)[C@]3(C)C(=O)C[C@]12C`?
A: T/C (dose: 0.13 mg/kg/injection, schedule: Q01DX010 (ip), vehicle: saline): 95 % of control; T/C (dose: 0.25 mg/kg/injection, schedule: Q01DX009 (ip), vehicle: saline with Tween-80): 104 % of control; T/C (dose: 0.25 mg/kg/injection, schedule: Q01DX010 (ip), vehicle: saline): 104 % of control; T/C (dose: 0.5 mg/kg/injection, schedule: Q01DX009 (ip), vehicle: saline with Tween-80): 100 % of control; T/C (dose: 0.5 mg/kg/injection, schedule: Q01DX010 (ip), vehicle: saline): 100 % of control; T/C (dose: 0.62 mg/kg/injection, schedule: Q01DX009 (ip), vehicle: saline): 113 % of control; T/C (dose: 1.0 mg/kg/injection, schedule: Q01DX009 (ip), vehicle: saline with Tween-80): 109 % of control; T/C (dose: 1.0 mg/kg/injection, schedule: Q01DX010 (ip), vehicle: saline): 104 % of control; T/C (dose: 1.25 mg/kg/injection, schedule: Q01DX009 (ip), vehicle: saline): 117 % of control; T/C (dose: 2.0 mg/kg/injection, schedule: Q01DX009 (ip), vehicle: saline with Tween-80): 118 % of control; T/C (dose: 2.5 mg/kg/injection, schedule: Q01DX009 (ip), vehicle: saline): 117 % of control; T/C (dose: 5.0 mg/kg/injection, schedule: Q01DX009 (ip), vehicle: saline): 113 % of control; T/C (dose: 10.0 mg/kg/injection, schedule: Q01DX009 (ip), vehicle: saline): 113 % of control

Q: For `O=C1Nc2ccccc2/C1=C/c1ccc(Cl)c(Cl)c1`, which T/C [6] is on record?
A: 96 % of control

Q: What about the T/C [7] of the same compound?
A: 95 % of control

Q: And the T/C [8]?
A: 92 % of control

Q: What about the T/C [9] of the same compound?
A: 86 % of control

Q: What about the T/C (dose: 200.0 mg/kg/injection, schedule: Q01DX009 (ip), vehicle: Klucel (hydroxypropylcellulose) (HPC)) of the same compound?
A: 90 % of control

Q: Which results are given for `CC(=O)c1c(C)n(C)c2c1nnc1ccccc12`?
A: T/C [10]: 101 % of control; T/C [11]: 97 % of control; T/C [12]: 99 % of control

Q: For `O=C(NC1CCOC1=O)OCc1ccccc1` (configuration not stated), which T/C (dose: 25.0 mg/kg/injection, schedule: Q01DX009 (ip), vehicle: distilled water + Tween-80) is on record?
A: 110 % of control

Q: And the T/C (dose: 50.0 mg/kg/injection, schedule: Q01DX009 (ip), vehicle: distilled water + Tween-80)?
A: 95 % of control

Q: And the T/C (dose: 100.0 mg/kg/injection, schedule: Q01DX009 (ip), vehicle: distilled water + Tween-80)?
A: 117 % of control

Q: And the T/C (dose: 200.0 mg/kg/injection, schedule: Q01DX009 (ip), vehicle: distilled water + Tween-80)?
A: 111 % of control

Q: For `CCC1=CC2CN(CCc3c([nH]c4ccccc34)C(C(=O)OC)(c3cc4c(cc3OC)N(C=O)C3C(O)(C(=O)NC)C(OC(C)=O)C5(CC)C=CCN6CCC43C65)C2)C1` (configuration not stated), which T/C (dose: 1.0 mg/kg/injection, schedule: Q01DX001 (ip), vehicle: water) is on record?
A: 150 % of control

Q: And the T/C (dose: 2.0 mg/kg/injection, schedule: Q01DX001 (ip), vehicle: water)?
A: 153 % of control

Q: What about the T/C (dose: 4.0 mg/kg/injection, schedule: Q01DX001 (ip), vehicle: water) of the same compound?
A: 160 % of control

Q: What does the source list for `CCCCCCN(CCCCCC)CC(O)c1cccc2ccc(Cl)cc12` (configuration not stated)?
A: T/C [13]: 90 % of control; T/C [14]: 95 % of control; T/C [15]: 109 % of control

Q: `O=c1[nH]c(=O)c2sc3ncccc3c2[nH]1` was tested. Which T/C (dose: 6.25 mg/kg/injection, schedule: Q01DX009 (ip), vehicle: saline) did it give?
A: 119 % of control

Q: What about the T/C (dose: 12.5 mg/kg/injection, schedule: Q01DX009 (ip), vehicle: saline) of the same compound?
A: 100 % of control

Q: What about the T/C (dose: 25.0 mg/kg/injection, schedule: Q01DX009 (ip), vehicle: saline) of the same compound?
A: 101 % of control

Q: `CS(=O)(=O)N/N=C/C(=O)O` was tested. Which T/C [1] did it give?
A: 118 % of control

Q: What about the T/C [2] of the same compound?
A: 160 % of control

Q: And the T/C (dose: 100.0 mg/kg/injection, schedule: Q01DX009 (ip), vehicle: water)?
A: 157 % of control and 159 % of control

Q: `CCOc1cccc(/C=C2/C(=O)N(Cc3ccco3)SC2=S)c1O` was tested. Which T/C (dose: 3.12 mg/kg/injection, schedule: Q01DX009 (ip), vehicle: Klucel (hydroxypropylcellulose) (HPC)) did it give?
A: 93 % of control

Q: And the T/C [6]?
A: 93 % of control

Q: What about the T/C [7] of the same compound?
A: 93 % of control and 94 % of control

Q: And the T/C [8]?
A: 98 % of control

Q: `CCC[CH2][Sn]([CH2]CCC)([S]CCS(=O)(=O)O)[S]CCS(=O)(=O)O` (tested in a mixture with another compound) was tested. Which T/C [10] did it give?
A: 105 % of control

Q: What about the T/C [11] of the same compound?
A: 105 % of control

Q: What about the T/C [12] of the same compound?
A: 115 % of control

Q: What does the source list for `Cc1cc(C)[nH]n1`?
A: T/C [4]: 110 % of control; T/C [5]: 105 % of control; T/C (dose: 400.0 mg/kg/injection, schedule: Q01DX009 (ip), vehicle: saline with Tween-80): 120 % of control

Q: Which results are given for `[Cl][Zr][Cl].[c-]1[c-][c-][c-](Cc2ccccc2)[c-]1.[c-]1[c-][c-][c-](Cc2ccccc2)[c-]1`?
A: T/C (dose: 3.12 mg/kg/injection, schedule: Q01DX009 (ip), vehicle: saline with Tween-80): 104 % of control; T/C (dose: 6.25 mg/kg/injection, schedule: Q01DX009 (ip), vehicle: saline with Tween-80): 89 % of control; T/C (dose: 12.5 mg/kg/injection, schedule: Q01DX009 (ip), vehicle: saline with Tween-80): 86 % of control

Q: How did the T/C (dose: 3.12 mg/kg/injection, schedule: Q04DX002 (ip), vehicle: Klucel (hydroxypropylcellulose) (HPC)) turn out when `CC(=O)[O-].CC(=O)[O-].CC(=O)[O-].CC(=O)[O-].Cn1c(=O)c2[nH]cnc2n(C)c1=O.Cn1c(=O)c2[nH]cnc2n(C)c1=O.[Rh+2].[Rh+2]` was run?
A: 100 % of control

Q: What about the T/C (dose: 6.25 mg/kg/injection, schedule: Q04DX002 (ip), vehicle: Klucel (hydroxypropylcellulose) (HPC)) of the same compound?
A: 101 % of control and 120 % of control

Q: And the T/C (dose: 12.5 mg/kg/injection, schedule: Q04DX002 (ip), vehicle: Klucel (hydroxypropylcellulose) (HPC))?
A: 101 % of control and 118 % of control

Q: What about the T/C (dose: 25.0 mg/kg/injection, schedule: Q04DX002 (ip), vehicle: Klucel (hydroxypropylcellulose) (HPC)) of the same compound?
A: 103 % of control and 110 % of control

Q: What about the T/C (dose: 50.0 mg/kg/injection, schedule: Q04DX002 (ip), vehicle: Klucel (hydroxypropylcellulose) (HPC)) of the same compound?
A: 103 % of control

Q: For `Cc1cc(NC(=S)SCc2ccc(F)cc2)ccc1Br`, which T/C (dose: 50.0 mg/kg/injection, schedule: Q01DX009 (ip), vehicle: Klucel (hydroxypropylcellulose) (HPC)) is on record?
A: 112 % of control and 122 % of control

Q: What about the T/C (dose: 50.0 mg/kg/injection, schedule: Q01DX009 (ip), vehicle: suspension in saline) of the same compound?
A: 93 % of control

Q: What about the T/C [9] of the same compound?
A: 114 % of control and 115 % of control

Q: And the T/C (dose: 100.0 mg/kg/injection, schedule: Q01DX009 (ip), vehicle: suspension in saline)?
A: 94 % of control

Q: And the T/C (dose: 200.0 mg/kg/injection, schedule: Q01DX009 (ip), vehicle: suspension in saline)?
A: 109 % of control

Q: How did the T/C [13] turn out when `COc1ccc(-c2coc3c4c(ccc3c2=O)OC(C)(C)C=C4)cc1` was run?
A: 101 % of control

Q: What about the T/C [14] of the same compound?
A: 99 % of control

Q: And the T/C [15]?
A: 100 % of control

Q: `CC1CC2OC(/C=C/C=C/C=C\C=C\C=C\C(O)=C3\C(=O)C(C(C)C)N(C)C3=O)C(O)C2O1` (configuration not stated) was tested. Which T/C (dose: 3.0 mg/kg/injection, schedule: Q01DX005 (ip), vehicle: Klucel (hydroxypropylcellulose) (HPC)) did it give?
A: 120 % of control and 124 % of control
